# Measurements: US12275686B2, “NO donor compound, preparation method thereof, pharmaceutical composition comprising same, and use thereof” (SOUTHEAST UNIVERSITY, priority 2022, dated 2025)
# What was measured:
# [1] = test system: H9c2 cells; experiment: NO release level in H9c2 cells under normoxia or hypoxia, Griess method; format: cell-based; conditions: for NO release (%) / NO release amount (%): H9c2 cells, 4 h; for NO release (%): hypoxia (1% O2); for NO release amount (%): normoxia (21% O2)
# Description: H9c2 cells were revived, cultured with DMEM medium, and placed in a carbon dioxide incubator to allow the cells to adhere to the wall for growth. After the cells grew to reach an appropriate density, cells were inoculated in a multi-well plate and placed in the carbon dioxide incubator for culture for 24 h at 37° C., 5% CO2, and saturated humidity until the cells adhered to the wall, the supernatant was discarded, and 2 mL of fresh DMEM medium was added. Then, a certain concentration (5, 10, 15 μM) of compounds and the reference drug of isosorbide dinitrate were added. After culturing in a normoxic incubator (37° C., 21% O2) or an anoxic incubator (37° C., 1% O2) for 4 h, the supernatant was removed, and the cells in the multi-well plate were collected in 1.5 mL centrifuge tubes and centrifuged at 1000 rpm for 5 min, the supernatant was discarded, 1 mL of PBS was added into the centrifuge tubes to resuspend the cells, and the cells were centrifuged again, the PBS was discarded. 100 μL of cell lysis buffer (special for NO measurement) was added to the centrifuge tubes, placed on ice for half a minute, and then centrifuged for 5 min at 4° C. and 13300 rpm, and the supernatant was collected. 50 μL of the supernatant was taken in a 96-well plate, three parallel groups were set for each sample, and 50 μL of Griess reagent I and 50 μL of Griess reagent II were added in sequence. The OD value of each well was measured at 540 nm with a full-wavelength microplate reader, and the NO concentration was calculated using the standard curve, as shown in Tables 1 and 2.
# [2] = test system: H9c2 cells; experiment: Vitality of H9c2 cells under normoxia or hypoxia (CCK8); format: cell-based; conditions: 4 h; for improvement on the cell viability: normoxic condition, FIG. 1A
# Description: The cells were washed twice with 5 mL PBS, 1 mL trypsin was added to digest the monolayer cultured H9c2 cells, a single cell suspension was prepared with serum-containing culture medium, and 5000-10000 cells per well were inoculated in a 96-well culture plate. The volume of culture medium per well is 100 μL, and the edge wells are filled with sterilized pure water. The culture plate was moved into a carbon dioxide incubator for culture for 24 h at 37° C., 5% CO2, and saturated humidity until the cells adhere to the wall. 100 μL culture medium in the well was aspirated, 50 μL fresh culture medium was added into the well, and different concentrations of compounds and reference drug isosorbide dinitrate were given respectively to the well. 50 μL drug was added to each well, 3 parallel groups and 1 normoxic group without drug addition as control were set, and concentration gradient of the drug is 10, 1, 0.1, 0.01, 0.001 μM. The normoxic group was incubated in a normal incubator at 5% CO2 and 37° C. for 4 h; and the hypoxic group was incubated in a hypoxic incubator (concentration of 02≤1%) at 37° C. for 4 h. After the culture was completed, 10 μL CCK8 reagent was added to each well and the normoxic group and the hypoxic group continued to be cultured in a normoxic incubator for 4 h, and the culture was terminated. The absorbance of each well was measured at 450 nm with a microplate reader to calculate the cell survival rate of cells at different concentrations, as shown in FIGS. 1A and 1B.
# [3] = test system: mTORC1 and TSC2-P proteins; experiment: Expression level of myocardial injury marker proteins in myocardial hypoxia mouse, Western blot; format: in vivo; conditions: hypoxia model mouse pretreated with 20 mg/kg, FIG. 3
# Text: Western Blot gel preparation kit (Biyuntian Biotechnology Co., Ltd., Shanghai), BCA detection kit for protein quantification (Biyuntian Biotechnology Co., Ltd., Shanghai), ionization buffer, wet transfer solution, primary antibody (anti-TSC2-P, Abgent, 1:1000, A-AP3825a; anti-mTORC1, Abcam, 1:1000, ab120224; anti-GAPDH, Bioworld Technology, 1:500, AP0063), secondary antibody (Goat Anti-Rabbit IgG (H+L) HRP, 1:3000, Bioworld Technology, BS13278), 6-8-week-old male Kunming mouse.
# The changes of protein expression levels are analyzed based on Western Blot bands.
# • (1) Mouse heart tissue protein was extracted and centrifuged at 12,000 rpm for 15 min to collect the protein, the protein was quantified using a BCA kit, and added to boiling water in loading buffer and cook for 5 min for later use; • (2) SDS-PAGE gel was prepared and the sample was loaded to separate protein bands; • (3) After transferring the protein bands to the PVDF membrane, the membrane was blocked with milk to incubate primary and secondary antibodies in sequence. The protein bands were visualized using a chemiluminescence developer to analyze the changes of protein expression in each group, as shown in FIG. 3.
# [4] = test system: heart of mouse hypoxia model; experiment: NO release level in the heart of mouse hypoxia model, NO detection kit; format: in vivo; conditions: mouse hypoxia model (85 mg/kg isoproterenol), 20 mg/kg intraperitoneally before modeling, FIG. 2
# Text: NO detection kit (Biyuntian Biotechnology Co., Ltd., Shanghai), heart tissue homogenate of hypoxia modeling and drug-given mouse, and blank control group mouse, and 6-8-week-old male Kunming mouse.
# NO has chemical activity and is rapidly converted into NO3^− and NO2^− in the body, and NO2^− is further converted into NO3^−. NO^3− is reduced to NO2^− […], NO2^− has characteristic absorption at 540 nm, the absorbance is detected at 540 nm by a microplate reader, and the NO concentration is calculated using a standard curve.
# • (1) Hypoxia model (85 mg/kg isoproterenol), the drug-given group was intraperitoneally injected with 20 mg/kg compound I1 before hypoxia modeling; • (2) Cardiac tissue homogenate protein was obtained by centrifugation at 12,000 rpm for 15 min; • (3) The working solution in the NO detection kit was prepared, the working solution was added to each group of proteins, after incubation, and each group of proteins was detected with an microplate reader to analyze the NO content in each group, as shown in FIG. 2.
SMILES,NO release (%) ([1]; compound 10 μM),NO release amount (%) ([1]; compound 10 μM),NO release (%) ([1]; compound 5 μM),NO release (%) ([1]; compound 15 μM),NO release amount (%) ([1]; compound 5 μM),NO release amount (%) ([1]; compound 15 μM),also measured
"CN(N=O)c1ccc(OC(=O)OCc2ccc(Br)cc2[N+](=O)[O-])cc1 [Compound I6, 4-((methylnitroso)amino) phenyl (2-nitro-4-bromobenzyl) carbonate]",0.94%,0.17%,,,,,
"CN(N=O)c1ccc(OC(=O)OCc2cc(Cl)ccc2[N+](=O)[O-])cc1 [Compound I8, 4-((methylnitroso)amino) phenyl (2-nitro-5-chlorobenzyl) carbonate]",0.93%,0.27%,,,,,
"CN(N=O)c1ccc(OC(=O)OCc2ccccc2[N+](=O)[O-])cc1 [Compound I4, 4-((methylnitroso)amino) phenyl (2-nitrobenzyl) carbonate]",20.62%,2.35%,20.78%,18.33%,1.02%,0.98%,improvement on the cell viability ([2]; 1 μM): slight improvement on the cell viability
"CN(N=O)c1ccc(OC(=O)OCc2ccc([N+](=O)[O-])cc2)cc1 [Compound I1, 4-((methylnitroso)amino) phenyl (4-nitrobenzyl) carbonate]",24.38%,0.84%,25.24%,20.15%,0.24%,0.16%,anti-myocardial hypoxic damage effect [3]: excellent anti-myocardial hypoxic damage effect; expression of mTORC1 in the hearts ([3]; Western blot): restored to near a level of the normal group; NO level in the heart [4]: significantly higher than that of the other two groups
"CN(N=O)c1ccc(OC(=O)OCc2ccc(Cl)cc2[N+](=O)[O-])cc1 [Compound I5, 4-((methylnitroso)amino) phenyl (2-nitro-4-chlorobenzyl) carbonate]",0.96%,0.15%,,,,,
"O=[N+]([O-])O[C@H]1CO[C@H]2[C@@H]1OC[C@H]2O[N+](=O)[O-] [Isosorbide dinitrate, isosorbide dinitrate]",,,,,,,"NO release amount ([1]; hypoxia condition, different concentrations (5, 10, 15 μM)): less than that under the normoxia condition; viability of hypoxic cells ([2]; hypoxic condition (O2≤1%), 0.001-10 μM, FIG. 1B): a certain improvement on the cell viability at high concentration; improvement on the cell viability ([2]; 0.001-10 μM): does not improve the cell viability"
"Cc1cc([N+](=O)[O-])ccc1COC(=O)Oc1ccc(N(C)N=O)cc1 [Compound I3, 4-((methylnitroso)amino) phenyl (2-methyl-4-nitrobenzyl) carbonate]",45.42%,0.92%,40.58%,43.21%,0.43%,0.32%,
"Cc1ccc([N+](=O)[O-])c(COC(=O)Oc2ccc(N(C)N=O)cc2)c1 [Compound I9, 4-((methylnitroso)amino) phenyl (2-nitro-5-methylbenzyl) carbonate]",0.95%,0.23%,,,,,
"Cc1ccc(COC(=O)Oc2ccc(N(C)N=O)cc2)c([N+](=O)[O-])c1 [Compound I7, 4-((methylnitroso)amino) phenyl (2-nitro-4-methylbenzyl) carbonate]",1.83%,0.12%,,,,,
"CN(N=O)c1ccc(OC(=O)OCc2ccc([N+](=O)[O-])cc2Cl)cc1 [Compound I2, 4-((methylnitroso)amino) phenyl (2-chloro-4-nitrobenzyl) carbonate]",30.96%,3.34%,34.75%,27.37%,1.58%,0.93%,
